# Source: patent US4912097A, “Novel 11 β-alkynylphenyl-10-nor-steroids” (Roussel Uclaf, priority 1986, dated 1990)
# Like-named read-outs stand apart in the source and are kept apart here.
# What was measured:
# [1] = molecular target: T1, Progestogen Receptor of the Rabbit Uterus (Oryctolagus cuniculus, UniProt P06186); assay: Relative bonding affinity (ARL), progestogen receptor of the rabbit uterus; assay type: binding; conditions: for relative bonding affinity (ARL), Progestogen: displacement of tritiated R
# T1 construct: The uteruses were removed, weighed and homogenized at 0° C; from tissue; host or cells: uterus of non-adult, estradiol-treated rabbits; high-speed supernatant of the homogenate
# T1 sequence (P06186 1-930): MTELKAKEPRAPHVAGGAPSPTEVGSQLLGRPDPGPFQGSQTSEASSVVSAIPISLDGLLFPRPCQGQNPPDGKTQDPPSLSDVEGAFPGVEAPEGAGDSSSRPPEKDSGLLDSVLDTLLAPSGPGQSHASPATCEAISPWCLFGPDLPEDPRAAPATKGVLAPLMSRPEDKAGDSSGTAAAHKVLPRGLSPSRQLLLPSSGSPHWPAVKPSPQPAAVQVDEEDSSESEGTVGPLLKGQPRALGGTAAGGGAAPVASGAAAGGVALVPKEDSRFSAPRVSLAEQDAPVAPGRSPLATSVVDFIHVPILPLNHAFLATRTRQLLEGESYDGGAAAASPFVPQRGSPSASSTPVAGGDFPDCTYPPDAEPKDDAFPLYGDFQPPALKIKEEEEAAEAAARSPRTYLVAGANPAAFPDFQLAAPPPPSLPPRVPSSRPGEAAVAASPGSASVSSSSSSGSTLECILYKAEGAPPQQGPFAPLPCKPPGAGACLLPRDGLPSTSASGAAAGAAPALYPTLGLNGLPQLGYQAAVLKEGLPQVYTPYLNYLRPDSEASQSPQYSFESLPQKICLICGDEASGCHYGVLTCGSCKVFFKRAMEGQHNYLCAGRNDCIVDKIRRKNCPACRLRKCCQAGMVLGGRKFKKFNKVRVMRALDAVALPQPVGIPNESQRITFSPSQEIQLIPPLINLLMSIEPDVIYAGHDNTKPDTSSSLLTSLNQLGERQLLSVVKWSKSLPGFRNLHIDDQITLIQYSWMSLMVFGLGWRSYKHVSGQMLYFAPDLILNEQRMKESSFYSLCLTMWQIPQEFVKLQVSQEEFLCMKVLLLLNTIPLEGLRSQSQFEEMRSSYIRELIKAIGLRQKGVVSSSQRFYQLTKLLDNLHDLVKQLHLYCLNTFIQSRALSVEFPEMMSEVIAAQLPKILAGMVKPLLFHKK
# Method: (§1) Study of the activity upon the hormonal receptors.
# Non-adult rabbits of about 1 kg are given a cutaneous application of 25 μg of estradiol and 5 days after this treatment, the animals were sacrificed. The uteruses were removed, weighed and homogenized at 0° C. with the aid of a Potter polytertrafluoroethylene dish in a buffered TS solution ([…], HCl pH 7.4) (1 g of tissue per 50 ml of TS). The homogenate was then ultracentrifuged (105,000 g×90 mm) at 0° C. Aliquots of the supernatent fluid thus obtained were incubated at 0° C. for a period (t) with a constant concentration (T) of tritiated Product R (17, 21-dimethyl-19-nor-Δ^-4,9 -pregnadien-3,20-dione) in the presence of increasing concentrations (0-2500. 10^-9 M) either of R cold, or of progesterone cold, or of the product to be tested cold. The concentration of tritiated R bound (B) was then measured in each incubate by the technique of adsorbtion on dextran charcoal.
# (§2) The calculation of the relative bonding affinity (ARL) was identical for all the receptors.
# (§3) The 2 curves were plotted as follows: the percentage of the tritiated hormone bound B/T as a function of the logarithm of the concentration of the reference hormone cold and B/T as a function of the logarithm of the concentration of the product tested cold.
# (§4) The straight line of the equation I50 =(B/T max+B/T min)/2. B/T max=percentage of the tritiated hormone bound for one incubation of this tritiated hormone at the concentration (T) was determined. B/T min=percentage of the tritiated hormone bound for one incubation of this tritiated hormone at the concentration (T) in the presence of a great excess of the cold hormone (2500·10^-9 M).
# (§5) The intersections of the straight line I50 and of the curves make it possible to estimate the concentrations of the cold reference hormone (CH) and of the cold product tested (CX) which inhibits 50% of the bonding of the tritiated hormone on the receptor. The relative affinity of the bonding (ARL) of the product tested was determined by the equation [formula]
# [2] = molecular target: T2, Gluoccocorticoid Receptor of the Rat Thymus (Rattus norvegicus, UniProt P06536); assay: Relative bonding affinity (ARL), glucocorticoid receptor of the rat thymus; assay type: binding, rat (male Sprague Dawley EOPS); conditions: for relative bonding affinity (ARL), Glucocorticoid: displacement of tritiated dexamethasone
# T2 construct: The thymuses were removed and homogenized at 0° C; from tissue; host or cells: thymus of adrenalectomised male Sprague Dawley rats; high-speed supernatant of the homogenate
# T2 sequence (P06536 1-795): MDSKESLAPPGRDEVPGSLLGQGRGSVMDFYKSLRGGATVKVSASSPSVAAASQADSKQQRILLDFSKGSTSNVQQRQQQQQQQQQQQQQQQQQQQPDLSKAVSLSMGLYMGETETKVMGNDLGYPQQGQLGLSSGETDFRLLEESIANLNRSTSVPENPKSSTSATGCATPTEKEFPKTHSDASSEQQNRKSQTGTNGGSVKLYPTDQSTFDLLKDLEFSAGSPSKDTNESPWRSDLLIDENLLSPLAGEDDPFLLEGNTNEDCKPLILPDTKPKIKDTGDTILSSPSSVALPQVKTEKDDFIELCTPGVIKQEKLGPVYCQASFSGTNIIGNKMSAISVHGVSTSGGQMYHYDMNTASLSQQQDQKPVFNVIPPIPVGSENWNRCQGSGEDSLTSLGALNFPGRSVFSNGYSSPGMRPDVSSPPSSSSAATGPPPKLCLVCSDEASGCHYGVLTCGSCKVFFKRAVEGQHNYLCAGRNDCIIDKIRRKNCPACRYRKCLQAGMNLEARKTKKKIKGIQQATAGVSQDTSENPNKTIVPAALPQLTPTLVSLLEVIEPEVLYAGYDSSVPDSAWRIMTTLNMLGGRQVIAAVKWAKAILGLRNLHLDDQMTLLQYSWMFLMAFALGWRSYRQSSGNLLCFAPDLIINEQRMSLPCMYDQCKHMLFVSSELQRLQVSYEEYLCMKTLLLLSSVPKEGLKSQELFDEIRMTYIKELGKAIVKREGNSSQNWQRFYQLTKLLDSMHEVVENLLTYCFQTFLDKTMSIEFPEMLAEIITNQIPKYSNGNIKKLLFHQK
# Method: as §1
# Male Sprague Dawley EOPS rats of 160 to 200 g were surrenalectomised and 4 to 8 days after this ablation, the animals were sacrificed. The thymuses were removed and homogenized at 0° C. in a 10 mM Tris, 0.25M saccharose, 2 mM dithiothreitol, HCl pH 7.4 buffer with the aid of a Potter polytetrafluoroethylene dish (1 g of tissue per 10 ml of TS). The homogenate was then ultracentrifuged (105,000×90 mn) at 0° C. Aliquots of the supernatent fluid thus obtained were incubated at 0° for a period (t) with a constant concentration (T) of tritiated dexamethasone in the presence of increasing concentrations (0-2500. 10^-9 M) either of cold dexamethasone, or of cold product to be tested. The concentration of tritiated dexamethasone bound (B) was then measured in each incubate by the technique of adsorption on dextran charcoal.
# as §2, §3, §4, §5
# [3] = tested on: thymocytes of surrenalectomised rats; assay: Antiglucocorticoidal activity: incorporation of tritiated uridine in thymocytes treated with dexamethasone; assay type: cell-based, rat; conditions: for opposition to the dexamethasone-caused diminution of incorporation of tritiated uridine (in words) / inhibition at 1 µM / inhibition at 0.1 µM / inhibition at 0.01 µM: 5·10^-8 M dexamethasone; for inhibition at 1 µM / inhibition at 0.1 µM / inhibition at 0.01 µM: Rattus norvegicus, Thymocyte, read-out: % inhibition of the effect of Dexamethasone; for inhibition at 1 µM: product tested 10^-6 M; for inhibition at 0.1 µM: product tested 10^-7 M; for inhibition at 0.01 µM: product tested 10^-8 M
# Method: The technique employed was derived from the method described by Daune et al in Molecular Pharmacology, Vol. 13, 948-955 (1977) "The relationship between glucocorticold structure and effects upon thymocytes", for the thymocytes of the mouse. The thymocytes of surrenalectomised rats were incubated at 37° C. for 3 hours in a nutrient medium containing 5·10^-8 M of dexamethasone, in the presence or absence of a product to be studied at different concentrations. One added tritiated uridine, and continued the incubation for one hour. The incubates were cooled and treated with a 5% solution of trichloroacetic acid. After filtration on Whatman GF/A paper, and washing three times with a 5% trichloroacetic acid solution, the radioactivity retained by the filter was determined.
# [4] = tested on: gestation in the rat; assay: Abortifacient activity in the rat; assay type: in vivo; conditions: 3 mg/kg orally on Day D 9 of gestation; sacrificed 72 hours after treatment
# Method: Day D 1 of gestation was determined by the presence of spermatozoids in the vaginal smears and on Day D 9 of gestation, the product was administered orally in suspension in carboxymethyl cellulose containing 0.5% of Tween. The animals were sacrificed 72 hours after the treatment and the uterus was examined to determine the state of gestation.
# [5] = 37° C., 3 hours + 1 hour tritiated uridine
affinity for the progestogen receptor (in words) [1],"relative bonding affinity (ARL), Progestogen ([1]; time of incubation at 0°: 2H)","relative bonding affinity (ARL), Progestogen ([1]; time of incubation at 0°: 24H)",affinity for the glucocorticoid receptor (in words) [2],"relative bonding affinity (ARL), Glucocorticoid ([2]; time of incubation at 0°: 4H)","relative bonding affinity (ARL), Glucocorticoid ([2]; time of incubation at 0°: 24H)",Structure (SMILES),opposition to the dexamethasone-caused diminution of incorporation of tritiated uridine (in words) [3],"inhibition at 1 µM [3, 5] [%]","inhibition at 0.1 µM [3, 5] [%]","inhibition at 0.01 µM [3, 5] [%]",abortion (state of gestation) [4],incorporation of tritiated uridine (in words) ([3]; effect of glucocorticoid alone),inhibition at 1 µM ([3]; symbol explained in footnote) [%]
,,,,,,"C[C@@H]1C[C@H]2[C@@H]3CCC4=CC(=O)C=C[C@]4(C)[C@@]3(F)[C@@H](O)C[C@]2(C)[C@@]1(O)C(=O)CO [dexamethasone, reference compound]",,,,,,cause a diminution of the incorporation of tritiated uridine,
very marked affinity,44,167,very marked affinity,107,124,"C#Cc1ccc([C@H]2C[C@@]3(C)[C@@H](CC[C@@]3(O)C#CC)[C@@H]3CCC4=CC(=O)CCC4=C32)cc1 [Example 3, 11β-(4-ethynylphenyl)-17α-(1-propynyl)-Δ^4,9-estradien-17β-ol-3-one]",,,,,complete abortion in all the animals,,
very marked affinity,41,124,very marked affinity,65,57,"C#Cc1ccc([C@H]2C[C@@]3(C)[C@@H](CC[C@@]3(O)CC=C)[C@@H]3CCC4=CC(=O)CCC4=C32)cc1 [Example 4, 11β-(4-ethynylphenyl)-17α-allyl-Δ^4,9-estradien-17β-ol-3-one]",oppose this effect,99,71,46,complete abortion in all the animals,,
very marked affinity,51,325,very marked affinity,84,153,"C#Cc1ccc([C@H]2C[C@@]3(C)[C@@H](CC[C@@]3(O)C#CCl)[C@@H]3CCC4=CC(=O)CCC4=C32)cc1 [Example 5, 17α-(chloroethynyl)-11β-(4-ethynylphenyl)-Δ^4,9-estradien-17β-ol-3-one]",oppose this effect,,84,47,complete abortion in all the animals,,100

Structure (SMILES),affinity for the progestogen receptor (in words) [1],"relative bonding affinity (ARL), Progestogen ([1]; time of incubation at 0°: 2H)","relative bonding affinity (ARL), Progestogen ([1]; time of incubation at 0°: 24H)",affinity for the glucocorticoid receptor (in words) [2],"relative bonding affinity (ARL), Glucocorticoid ([2]; time of incubation at 0°: 4H)","relative bonding affinity (ARL), Glucocorticoid ([2]; time of incubation at 0°: 24H)",opposition to the dexamethasone-caused diminution of incorporation of tritiated uridine (in words) [3],"inhibition at 1 µM [3, 5] [%]","inhibition at 0.1 µM [3, 5] [%]","inhibition at 0.01 µM [3, 5] [%]",abortion (state of gestation) [4],incorporation of tritiated uridine (in words) ([3]; effect of glucocorticoid alone),inhibition at 1 µM ([3]; symbol explained in footnote) [%]
"C#Cc1ccc([C@H]2C[C@@]3(C)[C@@H](CC[C@@]3(O)C#CCl)[C@@H]3CCC4=CC(=O)CC[C@]45O[C@]235)cc1 [Example 8, 17α-chloroethynyl-9α,10α-epoxy-11β-(4-ethynylphenyl)-17-Δ^4-estraen-17β-ol-3-one]",very marked affinity,38,285,very marked affinity,175,233,oppose this effect,77,37,7,complete abortion in all the animals,,
